We go through eleven compounds from patent US4882331A, “1-[(1,1-diphenyl)-1-alkenyl]piperazine derivatives, method of preparation and pharmaceutical compositions in which they are present” (priority 1987, dated 1989).

Series [1] deals with mouse muscle-relaxing action. The series can be described thus: Muscle-relaxing action (traction test). The format is in vivo. The settings on record: IP, doses in mg.kg^-1. From the text: 3. Muscle-relaxing action (traction test)
This test assesses the presence or absence of redressments in a mouse brought up to a horizontal wire with its front paws.
The number of mice which are unable to grip the wire with one of their back paws within 5 s is noted.
A 50% effective dose can be calculated from the results obtained.

In a further series the test system is mice. The series can be described thus: Determination of the 50% lethal dose (LD50) in mice. To be noted: mice, IP. The method, then:
(§1) The toxicity of the compounds of the invention was determined by the following test:
(§2) Determination of the 50% lethal dose (LD50) in mice
(§3) The test product was administered intraperitoneally to groups of 5 male mice and 5 female mice at a rate of 0.1 ml per 10 g of body weight.

The nature of the next series: in vivo. To be noted: mouse, in vivo, ip. The method, then: as §1, §2, §3
Another series has as its system yohimbine toxicity. The series is described as follows: Yohimbine test (yohimbine toxicity). To be noted: 24 h; mouse; IP; yohimbine 25 mg/kg IP. In kind it is in vivo. How it is done: The test derivative is administered 30 min before the injection of yohimbine (25 mg/kg IP).
The number of deaths is counted 24 h after the injection of yohimbine.

Series [2] deals with pain syndrome caused by phenylbenzoquinone (PBQ). The series can be described thus: Peripheral analgesic activity (phenylbenzoquinone). The format is in vivo. To be noted: mouse; IP. The method, then:
5. Peripheral analgesic activity
A peritoneal pain is caused in mice by the intraperitoneal injection of phenylbenzoquinone (PBQ).
The test assesses the decrease in the pain syndrome, characterized by an abdominal twisting movement, which is caused by injecting the test derivative 30 min before the administration of PBQ.
The 50% effective dose is calculated from the percentage decrease in the pain syndrome relative to the control animals.

For another series, the system named is motor activity of mice. The series is described as follows: Study of the spontaneous motility (photoelectric actimeter). In kind it is in vivo. To be noted: mouse, IP; for Activity (spontaneous motility): doses in mg.kg^-1. The method, then:
1. Study of the spontaneous motility
The motor activity of mice was determined using a Boissier and Simon photoelectric actimeter.
The mice are placed in groups of five in a box closed with a lid, through which two perpendicular rays of light pass; the mice cut across these rays as they move.
These movements are counted by a meter, which is read 30 min and 1 h after the administration of the test derivative.

Series [3] concerns penile erections and yawning. The series is described as follows: Penile erections caused by apomorphine. In kind it is in vivo. To be noted: Rattus norvegicus; rats; IP; apomorphine 0.20 mg/kg; read-out: Antagonism of the penile erections and yawning: antagonism as from dose. How it is done:
3. Penile erections caused by apomorphine
The test product was administered parenterally or orally to rats, placed in a transparent cage, 30 minutes before the intraperitoneal injection of 0.20 mg/kg of apomorphine.
The number of penile erections was recorded over the 30 minutes following the injection of apomorphine.
A statistical study was carried out by comparison with the numbers of erections in the control rats.

A further series deals with central nervous system. The series is described as follows: Pharmacological tests on the central nervous system, overall result. In kind it is in vivo, mouse, rat. To be noted: overall statement on Table III. The method, then: The pharmacological properties of the compounds of the invention were determined using the following tests: Experimental protocols The results obtained are collated in Table III below. […]

The subject of series [4] is hyperthermia and clinical signs after tranylcypromine and tryptophan. The series is described as follows: Grahame Smith's test. The format is in vivo. The settings on record: rats; PO. The method, then: Animals: male rats of 200±10 g
At time T-30 minutes, the test product was administered intraperitoneally.
At time T=O, an MAOI was administered intraperitoneally (tranylcypromine, 20 mg/kg).
At time T+20 minutes, 250 mg/kg of tryptophan were administered (IP).
The temperature of the rats was recorded every 30 minutes for 200 minutes and the various clinical signs (motor agitation--hypersalivation--catatonia of the tail--hyperesthesia--thrashing of the tail, etc.) were noted on a scale of 0 to 1.
The mean temperatures and the average symptoms observed were calculated by comparison with the controls.

Series [5] relates to head twitches induced by 5-MeODMT. The series can be described thus: Head twitches caused by 5-methoxydimethyltryptamine (5-MeODMT). The format is in vivo. The settings on record: Mus musculus; male mice; IP; 5-MeODMT 4 mg/kg; read-out: Antagonism of the head twitches induced by 5-MeODMT: decrease as from dose. The method, then:
2. Head twitches caused by 5-methoxydimethyltryptamine (5-MeODMT)
(§4) Animals: male mice of 25±1 g
At time T-3 hours, 100 mg/kg of pargyline were injected intraperitoneally.
(§5) At time T-30 minutes, the test product or distilled water (control) was injected intraperitoneally.
At time T=O, 5-MeODMT was injected intraperitoneally at a dose of 4 mg/kg.
The number of head twitches was observed.
(§6) The mean number of movements was calculated and compared with the control group.

Series [6] relates to antiserotoninergic activity. The series is described as follows: Antiserotoninergic activity tests, overall result. The format is in vivo, mice, rats. The settings on record: overall statement on Table IV. The text has this:
The compound of Example 1 was furthermore tested for its antiserotoninergic activity according to the following tests: […]

Series [7] concerns head twitches induced by 5-HTP. The series is described as follows: Head twitches caused by 5-hydroxytryptophane (5-HTP). The format is in vivo. The settings on record: Mus musculus; male mice; IP; 5-HTP 4 mg/kg; read-out: Antagonism of the head twitches induced by 5-HTP: decrease as from dose. How it is done: 1. Head twitches caused by 5-hydroxytryptophane (5-HTP)
as §4
At time T-3 h, 100 mg/kg of pargyline were injected intraperitoneally.
as §5
At time T=O, 5-HTP was injected intraperitoneally at a dose of 4 mg/kg.
All the jerky head movements made by the mice were observed over a 1-minute period every twelve minutes.
as §6

Broadly, the LD50 is the dose expected to kill half of the subjects tested. Read a low LD50 as a more toxic substance. One may read the ED50 as the midpoint of the dose-response relation. Lower therefore signals greater potency.

Take `CN(C)CCCN1c2ccccc2CCc2ccccc21` [IMIPRAMINE]: the “Muscle-relaxing action, traction test” value in series [1] is listed as “No action”.

In the case of `Fc1ccc(OC(CCN2CCN(CCC=C(c3ccccc3)c3ccccc3)CC2)c2ccccc2)cc1` (stereo not drawn) [Compound 5], the “FIDUCIAL LIMITS of LD50, CALCULATION ACCORDING TO LITCHFIELD and WILCOXON” value in the series on mice is 234 to 421 mg/kg. Besides, the LD50 in “in vivo” turned out to be 314 mg/kg.

In the case of `Fc1ccc(OCCCN2CCN(CCC=C(c3ccccc3)c3ccccc3)CC2)cc1` [Compound 6], in the series with mice, the “FIDUCIAL LIMITS of LD50, CALCULATION ACCORDING TO LITCHFIELD and WILCOXON” value was 206 to 296 mg/kg. In “in vivo”, this compound had an LD50 of 247 mg/kg. This compound gave an ED50 in the series on yohimbine toxicity of 25 mg/kg.

On to `Cc1ccc(OCCCCN2CCN(CCC=C(c3ccccc3)c3ccccc3)CC2)cc1` [Compound 14], for which the ED50 with yohimbine toxicity is over 25 mg/kg; in [2] it was 2.5 mg/kg. The “Activity (spontaneous motility)” value in the series on motor activity of mice is given as “Decrease”.

Take `Fc1ccc(OCCN2CCN(CCC=C(c3ccccc3)c3ccc(F)cc3)CC2)cc1` [Compound 17]: the 50% effective dose (ED50) is over 25 mg/kg with yohimbine toxicity and 5.2 mg/kg in series [2].

Regarding `O=C(CCCN1CCN(CCC=C(c2ccccc2)c2ccccc2)CC1)c1ccc(F)cc1` [Compound 7], the ED50 in the series on yohimbine toxicity is over 25 mg/kg; in the series on motor activity of mice it was 7.5 mg/kg.

`Fc1ccc(OCCCCN2CCN(CCC=C(c3ccccc3)c3ccccc3)CC2)cc1` [Compound 8]: the “FIDUCIAL LIMITS of LD50, CALCULATION ACCORDING TO LITCHFIELD and WILCOXON” value in the series with mice is 172 to 229 mg/kg. Also, the LD50 in the series “in vivo” is 199 mg/kg. Further, the ED50 in the series on yohimbine toxicity is over 25 mg/kg; in series [2], 6.25 mg/kg.

For `Fc1ccc(OCCN2CCN(CCCC=C(c3ccccc3)c3ccccc3)CC2)cc1` [Compound 16], in series [2], the ED50 is 4.5 mg/kg.

With `O=C(O)CCCCCCNC1c2ccccc2CCc2ccccc21` [AMINEPTINE], the “Muscle-relaxing action, traction test” value in [1] is “No action”.

As for `Cc1ccccc1OC(CCN1CCN(CCC=C(c2ccccc2)c2ccccc2)CC1)c1ccccc1` (stereo not drawn) [Compound 4], the “FIDUCIAL LIMITS of LD50, CALCULATION ACCORDING TO LITCHFIELD and WILCOXON” value with mice was 279 to 453 mg/kg. Moreover, the LD50 in “in vivo” is 386 mg/kg. Besides, in [2], it took a dose of 1.5 mg/kg to reach the 50% effect level (ED50). Besides, the “Activity (spontaneous motility)” value in the series with motor activity of mice is “Increase”.

`Fc1ccc(OCCN2CCN(CCC=C(c3ccccc3)c3ccccc3)CC2)cc1` [Compound 1, 1-[(1,1-diphenyl)-1-buten-4-yl]-4-[1-(2-(4-fluorophenoxy)ethyl]piperazine dimethanesulfonate]: the “FIDUCIAL LIMITS of LD50, CALCULATION ACCORDING TO LITCHFIELD and WILCOXON” value with mice is 195 to 274 mg/kg. This compound displayed an LD50 in “in vivo” of 231 mg/kg. Besides, the ED50 in the series on yohimbine toxicity was determined as 31 mg/kg; in series [2], 1.5 mg/kg. The minimal effective dose in series [3] is at least 6.25 mg/kg; in series [5], at least 6.25 mg/kg; in [7] it was at least 18.8 mg/kg. Moreover, the “antidepressant / central nervous system activity” value with central nervous system is reported as “antidepressants with a greater activity than the known antidepressants”. Further, the “Grahame Smith's test: decrease at dose” value in series [4] is recorded as 37.5 mg/kg. Besides, the antiserotoninergic activity result in [6] is “possesses an antiserotoninergic activity”.
